In patent US20240158446A1, “CYCLIC COMPOUND HAVING SELECTIVE INHIBITORY ACTION ON KRAS OVER HRAS AND NRAS” (CHUGAI SEIYAKU KABUSHIKI KAISHA, priority 2021, published 2024):
Values belong to the molecule of their own block, whether it stands above or below them. Where a SMILES comes first, the peptide text is derived from it. Bridges are numbered along the chain shown (N, C = ends). [ ]: non-standard residue; d: D form. The star is where a group is joined. hPhe(3-Cl-4-CF3) = N[C@@H](CCc1ccc(C(F)(F)F)c(Cl)c1)C(=O)O; NPrPhe(4-CF3) = CCCN[C@@H](Cc1ccc(C(F)(F)F)cc1)C(=O)O; Piperazinyl(4-(3-oxetanyl)) = C1OCC1N1CCN(*)CC1; NMeGly(cPent) = CN[C@H](C(=O)O)C1CCCC1; Piperidide(4-Me) = CC1CCN(*)CC1; NMeD = CN[C@@H](CC(=O)O)C(=O)O; NMeL = CN[C@@H](CC(C)C)C(=O)O; NEtAla = CCN[C@@H](C)C(=O)O; Azetidin(1-yl) = C1CN(*)C1; Morpholide = C1CN(*)CCO1; NMeA = CN[C@@H](C)C(=O)O; Ac5c = NC1(C(=O)O)CCCC1; Aze = O=C(O)[C@@H]1CCN1; X24 = CC1(C)CCN(*)C1; Sar = CNCC(=O)O

Legend:
[1] = biological target: GDP-bound KRAS wild-type protein (Homo sapiens, UniProt P01116); test: Binding to KRAS by surface plasmon resonance (SPR), Single Cycle Kinetics; details: SPR Single Cycle Kinetics, GDP-bound KRAS wild-type protein, 1:1 binding model; read-out: KRAS KD
[2] = biological target: GDP-bound HRAS wild-type protein (Homo sapiens, UniProt P01112); test: Binding to HRAS by surface plasmon resonance (SPR), Single Cycle Kinetics; details: SPR, GDP-bound HRAS wild-type protein vs GDP-bound KRAS wild-type protein
[3] = biological target: GDP-bound NRAS wild-type protein (Homo sapiens, UniProt P01111); test: Binding to NRAS by surface plasmon resonance (SPR), Single Cycle Kinetics; details: SPR, GDP-bound NRAS wild-type protein vs GDP-bound KRAS wild-type protein
GDP-bound NRAS wild-type protein, sequence (P01111 whole entry): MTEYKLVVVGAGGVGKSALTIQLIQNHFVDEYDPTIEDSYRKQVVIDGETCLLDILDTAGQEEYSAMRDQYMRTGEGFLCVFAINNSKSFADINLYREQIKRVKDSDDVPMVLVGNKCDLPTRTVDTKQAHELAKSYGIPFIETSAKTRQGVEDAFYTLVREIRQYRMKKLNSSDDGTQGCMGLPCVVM

GDP-bound KRAS wild-type protein, sequence (P01116 whole entry): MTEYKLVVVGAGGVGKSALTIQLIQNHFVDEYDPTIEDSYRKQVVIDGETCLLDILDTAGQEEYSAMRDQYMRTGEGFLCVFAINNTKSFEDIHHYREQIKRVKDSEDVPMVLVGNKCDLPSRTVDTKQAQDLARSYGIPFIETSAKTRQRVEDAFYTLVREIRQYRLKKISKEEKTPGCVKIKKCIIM
GDP-bound HRAS wild-type protein, sequence (P01112 whole entry): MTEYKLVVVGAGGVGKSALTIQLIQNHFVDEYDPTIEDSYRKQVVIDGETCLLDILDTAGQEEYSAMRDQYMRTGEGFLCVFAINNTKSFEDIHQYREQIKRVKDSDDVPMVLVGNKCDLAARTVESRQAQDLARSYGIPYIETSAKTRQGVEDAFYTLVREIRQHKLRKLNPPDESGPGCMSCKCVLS

SMILES: CCCN1C(=O)[C@@H]2CCN2C(=O)[C@H](C)N(CC)C(=O)[C@H]([C@@H](C)CC)NC(=O)[C@H](CC(C)C)N(C)C(=O)C[C@@H](C(=O)N2CCOCC2)N(C)C(=O)[C@H](C2CCCC2)N(C)C(=O)C2(CCCC2)NC(=O)[C@@H]2CCCN2C(=O)[C@H](CCc2ccc(C(F)(F)F)c(Cl)c2)NC(=O)CN(C)C(=O)[C@@H]1Cc1ccc(C(F)(F)F)cc1 [PP0152] ([NMeL]I[NEtAla][Aze][NPrPhe(4-CF3)][Sar][hPhe(3-Cl-4-CF3)]P[Ac5c][NMeGly(cPent)][NMeD]-Morpholide; lactam N-11)
Kd [1]: 2.8 nM
HRAS/KRAS (ratio of KD value for HRAS to KD value for KRAS) [2]: B (a compound having 3 or more and less than 10 is denoted as B)
NRAS/KRAS (ratio of KD value for NRAS to KD value for KRAS) [3]: C (A compound having a KD ratio of 0.1 or more and less than 3 is denoted as C)

SMILES: CCCN1C(=O)[C@@H]2CCN2C(=O)[C@H](C)N(C)C(=O)[C@H]([C@@H](C)CC)NC(=O)[C@H](CC(C)C)N(C)C(=O)C[C@@H](C(=O)N2CCOCC2)N(C)C(=O)[C@H](C2CCCC2)N(C)C(=O)C2(CCCC2)NC(=O)[C@H](C)NC(=O)[C@H](CCc2ccc(C(F)(F)F)c(Cl)c2)NC(=O)CN(C)C(=O)[C@@H]1Cc1ccc(C(F)(F)F)cc1 [PP0153] ([NMeL]I[NMeA][Aze][NPrPhe(4-CF3)][Sar][hPhe(3-Cl-4-CF3)]A[Ac5c][NMeGly(cPent)][NMeD]-Morpholide; lactam N-11)
Kd [1]: 0.33 nM
HRAS/KRAS (ratio of KD value for HRAS to KD value for KRAS) [2]: C (A compound having a KD ratio of 0.1 or more and less than 3 is denoted as C)
NRAS/KRAS (ratio of KD value for NRAS to KD value for KRAS) [3]: C (A compound having a KD ratio of 0.1 or more and less than 3 is denoted as C)

SMILES: CCCN1C(=O)[C@@H]2CCN2C(=O)[C@H](C)N(C)C(=O)[C@H]([C@@H](C)CC)NC(=O)[C@H](CC(C)C)NC(=O)C[C@@H](C(=O)N2CCOCC2)N(C)C(=O)[C@H](C2CCCC2)N(C)C(=O)C2(CCCC2)NC(=O)[C@@H]2CCCN2C(=O)[C@H](CCc2ccc(C(F)(F)F)c(Cl)c2)NC(=O)CN(C)C(=O)[C@@H]1Cc1ccc(C(F)(F)F)cc1 [PP0154] (LI[NMeA][Aze][NPrPhe(4-CF3)][Sar][hPhe(3-Cl-4-CF3)]P[Ac5c][NMeGly(cPent)][NMeD]-Morpholide; lactam N-11)
Kd [1]: 0.23 nM
HRAS/KRAS (ratio of KD value for HRAS to KD value for KRAS) [2]: B (a compound having 3 or more and less than 10 is denoted as B)
NRAS/KRAS (ratio of KD value for NRAS to KD value for KRAS) [3]: C (A compound having a KD ratio of 0.1 or more and less than 3 is denoted as C)

SMILES: CCCN1C(=O)CN(C)C(=O)CNC(=O)[C@H]([C@@H](C)CC)NC(=O)[C@H](CC(C)C)N(C)C(=O)C[C@@H](C(=O)N2CCOCC2)N(C)C(=O)[C@H](C2CCCC2)N(C)C(=O)C2(CCCC2)NC(=O)[C@@H]2CCCN2C(=O)[C@H](CCc2ccc(C(F)(F)F)c(Cl)c2)NC(=O)CN(C)C(=O)[C@@H]1Cc1ccc(C(F)(F)F)cc1 [PP0155] ([NMeL]IG[Sar][NPrPhe(4-CF3)][Sar][hPhe(3-Cl-4-CF3)]P[Ac5c][NMeGly(cPent)][NMeD]-Morpholide; lactam N-11)
Kd [1]: 0.18 nM
HRAS/KRAS (ratio of KD value for HRAS to KD value for KRAS) [2]: C (A compound having a KD ratio of 0.1 or more and less than 3 is denoted as C)
NRAS/KRAS (ratio of KD value for NRAS to KD value for KRAS) [3]: B (a compound having 3 or more and less than 10 is denoted as B)

SMILES: CCCN1C(=O)[C@@H]2CCN2C(=O)CN(C)C(=O)[C@H]([C@@H](C)CC)NC(=O)[C@H](CC(C)C)N(C)C(=O)C[C@@H](C(=O)N2CCOCC2)N(C)C(=O)[C@H](C2CCCC2)N(C)C(=O)C2(CCCC2)NC(=O)[C@@H]2CCCN2C(=O)[C@H](CCc2ccc(C(F)(F)F)c(Cl)c2)NC(=O)CN(C)C(=O)[C@@H]1Cc1ccc(C(F)(F)F)cc1 [PP0156] ([NMeL]I[Sar][Aze][NPrPhe(4-CF3)][Sar][hPhe(3-Cl-4-CF3)]P[Ac5c][NMeGly(cPent)][NMeD]-Morpholide; lactam N-11)
Kd [1]: 0.12 nM
HRAS/KRAS (ratio of KD value for HRAS to KD value for KRAS) [2]: B (a compound having 3 or more and less than 10 is denoted as B)
NRAS/KRAS (ratio of KD value for NRAS to KD value for KRAS) [3]: C (A compound having a KD ratio of 0.1 or more and less than 3 is denoted as C)

Now from value to molecule, other results behind:

Kd [1]: 2.9 nM
SMILES: CCCN1C(=O)CN(C)C(=O)[C@@H]2CCCN2C(=O)[C@H]([C@@H](C)CC)NC(=O)[C@H](CC(C)C)N(C)C(=O)C[C@@H](C(=O)N2CCOCC2)N(C)C(=O)[C@H](C2CCCC2)N(C)C(=O)C2(CCCC2)NC(=O)[C@@H]2CCCN2C(=O)[C@H](CCc2ccc(C(F)(F)F)c(Cl)c2)NC(=O)CN(C)C(=O)[C@@H]1Cc1ccc(C(F)(F)F)cc1 [PP0165] ([NMeL]IP[Sar][NPrPhe(4-CF3)][Sar][hPhe(3-Cl-4-CF3)]P[Ac5c][NMeGly(cPent)][NMeD]-Morpholide; lactam N-11)
HRAS/KRAS (ratio of KD value for HRAS to KD value for KRAS) [2]: B (a compound having 3 or more and less than 10 is denoted as B)
NRAS/KRAS (ratio of KD value for NRAS to KD value for KRAS) [3]: B (a compound having 3 or more and less than 10 is denoted as B)

Kd [1]: 0.035 nM
SMILES: CCCN1C(=O)CN(C)C(=O)CN(C)C(=O)[C@H]([C@@H](C)CC)NC(=O)[C@H](CC(C)C)N(C)C(=O)C[C@@H](C(=O)N(C)C)N(C)C(=O)[C@H](C2CCCC2)N(C)C(=O)C2(CCCC2)NC(=O)[C@@H]2CCCN2C(=O)[C@H](CCc2ccc(C(F)(F)F)c(Cl)c2)NC(=O)CN(C)C(=O)[C@@H]1Cc1ccc(C(F)(F)F)cc1 [PP0169] ([NMeL]I[Sar][Sar][NPrPhe(4-CF3)][Sar][hPhe(3-Cl-4-CF3)]P[Ac5c][NMeGly(cPent)][NMeD]-NMe2; lactam N-11)
HRAS/KRAS (ratio of KD value for HRAS to KD value for KRAS) [2]: B (a compound having 3 or more and less than 10 is denoted as B)
NRAS/KRAS (ratio of KD value for NRAS to KD value for KRAS) [3]: B (a compound having 3 or more and less than 10 is denoted as B)

Kd [1]: 0.13 nM
SMILES: CCCN1C(=O)CN(C)C(=O)CN(C)C(=O)[C@H]([C@@H](C)CC)NC(=O)[C@H](CC(C)C)N(C)C(=O)C[C@@H](C(=O)N2CCC2)N(C)C(=O)[C@H](C2CCCC2)N(C)C(=O)C2(CCCC2)NC(=O)[C@@H]2CCCN2C(=O)[C@H](CCc2ccc(C(F)(F)F)c(Cl)c2)NC(=O)CN(C)C(=O)[C@@H]1Cc1ccc(C(F)(F)F)cc1 [PP0172] ([NMeL]I[Sar][Sar][NPrPhe(4-CF3)][Sar][hPhe(3-Cl-4-CF3)]P[Ac5c][NMeGly(cPent)][NMeD]-{Azetidin(1-yl)}; lactam N-11)
HRAS/KRAS (ratio of KD value for HRAS to KD value for KRAS) [2]: C (A compound having a KD ratio of 0.1 or more and less than 3 is denoted as C)
NRAS/KRAS (ratio of KD value for NRAS to KD value for KRAS) [3]: B (a compound having 3 or more and less than 10 is denoted as B)

Kd [1]: 0.35 nM
SMILES: CCCN1C(=O)CN(C)C(=O)CN(C)C(=O)[C@H]([C@@H](C)CC)NC(=O)[C@H](CC(C)C)N(C)C(=O)C[C@@H](C(=O)N2CCN(C3COC3)CC2)N(C)C(=O)[C@H](C2CCCC2)N(C)C(=O)C2(CCCC2)NC(=O)[C@@H]2CCCN2C(=O)[C@H](CCc2ccc(C(F)(F)F)c(Cl)c2)NC(=O)CN(C)C(=O)[C@@H]1Cc1ccc(C(F)(F)F)cc1 [PP0175] ([NMeL]I[Sar][Sar][NPrPhe(4-CF3)][Sar][hPhe(3-Cl-4-CF3)]P[Ac5c][NMeGly(cPent)][NMeD]-{Piperazinyl(4-(3-oxetanyl))}; lactam N-11)
HRAS/KRAS (ratio of KD value for HRAS to KD value for KRAS) [2]: B (a compound having 3 or more and less than 10 is denoted as B)
NRAS/KRAS (ratio of KD value for NRAS to KD value for KRAS) [3]: B (a compound having 3 or more and less than 10 is denoted as B)

Kd [1]: 0.55 nM
SMILES: CCCN1C(=O)CN(C)C(=O)CN(C)C(=O)[C@H]([C@@H](C)CC)NC(=O)[C@H](CC(C)C)N(C)C(=O)C[C@@H](C(=O)N2CCC(C)CC2)N(C)C(=O)[C@H](C2CCCC2)N(C)C(=O)C2(CCCC2)NC(=O)[C@@H]2CCCN2C(=O)[C@H](CCc2ccc(C(F)(F)F)c(Cl)c2)NC(=O)CN(C)C(=O)[C@@H]1Cc1ccc(C(F)(F)F)cc1 [PP0176] ([NMeL]I[Sar][Sar][NPrPhe(4-CF3)][Sar][hPhe(3-Cl-4-CF3)]P[Ac5c][NMeGly(cPent)][NMeD]-{Piperidide(4-Me)}; lactam N-11)
HRAS/KRAS (ratio of KD value for HRAS to KD value for KRAS) [2]: C (A compound having a KD ratio of 0.1 or more and less than 3 is denoted as C)
NRAS/KRAS (ratio of KD value for NRAS to KD value for KRAS) [3]: B (a compound having 3 or more and less than 10 is denoted as B)

Kd [1]: 0.55 nM
SMILES: CCCN1C(=O)CN(C)C(=O)CN(C)C(=O)[C@H]([C@@H](C)CC)NC(=O)[C@H](CC(C)C)N(C)C(=O)C[C@@H](C(=O)N2CCC(C)(C)C2)N(C)C(=O)[C@H](C2CCCC2)N(C)C(=O)C2(CCCC2)NC(=O)[C@@H]2CCCN2C(=O)[C@H](CCc2ccc(C(F)(F)F)c(Cl)c2)NC(=O)CN(C)C(=O)[C@@H]1Cc1ccc(C(F)(F)F)cc1 [PP0177] ([NMeL]I[Sar][Sar][NPrPhe(4-CF3)][Sar][hPhe(3-Cl-4-CF3)]P[Ac5c][NMeGly(cPent)][NMeD]-X24; lactam N-11)
HRAS/KRAS (ratio of KD value for HRAS to KD value for KRAS) [2]: C (A compound having a KD ratio of 0.1 or more and less than 3 is denoted as C)
NRAS/KRAS (ratio of KD value for NRAS to KD value for KRAS) [3]: B (a compound having 3 or more and less than 10 is denoted as B)

Kd [1]: 0.073 nM
SMILES: CCCN1C(=O)[C@@H]2CCN2C(=O)[C@H](C)N(C)C(=O)[C@H]([C@@H](C)CC)NC(=O)[C@H](CC(C)C)N(C)C(=O)C[C@@H](C(=O)N(C)C)N(C)C(=O)[C@H](C2CCCC2)N(C)C(=O)C2(CCCC2)NC(=O)[C@@H]2CCCN2C(=O)[C@H](CCc2ccc(C(F)(F)F)c(Cl)c2)NC(=O)CN(C)C(=O)[C@@H]1Cc1ccc(C(F)(F)F)cc1 [PP0178] ([NMeL]I[NMeA][Aze][NPrPhe(4-CF3)][Sar][hPhe(3-Cl-4-CF3)]P[Ac5c][NMeGly(cPent)][NMeD]-NMe2; lactam N-11)
HRAS/KRAS (ratio of KD value for HRAS to KD value for KRAS) [2]: B (a compound having 3 or more and less than 10 is denoted as B)
NRAS/KRAS (ratio of KD value for NRAS to KD value for KRAS) [3]: C (A compound having a KD ratio of 0.1 or more and less than 3 is denoted as C)
